Data reported in patent US8470344B2, “Aqueous dispersions and solutions of difficult to dissolve materials and methods of their preparation” (Teva Pharmaceutical Industries Ltd., priority 2005, dated 2013).

How the values were obtained:
[1] = Dissolving or dispersing the compound-covered substrate matrix (dry powder) in water; assay type: physicochemical
Description: 1 mL of the Latanoprost solution (6.4 mg/mL) in ethanol was added to a mixture of NaH2PO4*H2O (0.553 g) and Na2HPO4 (0.564 g). The resulting mixture was dried under reduced pressure at room temperature to yield dry powder particles having latanoprost on the surface thereof. The dry powder was dissolved in water (120 mL) to form a solution. Benzalkonium chloride was added to the solution.
Latanoprost (17.97 mg) was dissolved in acetonitrile (5 mL). 1.5 mL of this solution were added to mixture of NaH2PO4 (0.464 g) and Na2HPO4 (0.469 g). The resulting mixture was dried under reduced pressure to obtain a dry powder. 50 mL of water were added to dry powder and stirred during 5 minutes. A fine suspension of Latanoprost with concentration about 0.01% (w/v) was obtained. 50 mL of water, containing Benzalkonium chloride and sodium chloride, were added to this suspension and stirred. The obtained clear solution of Latanoprost had concentration 0.005% (w/v).
Dexamethasone (104.05 mg) was dissolved in acetonitrile (5 mL). 1 mL of this solution was added to 545 mg of NaH2PO4*H2O and the mixture was dried in a reduced pressure for 15 hours. 20 mL of water were added and mixture was stirred. A fine suspension of dexamethasone (concentration about 0.1% w/v) was obtained.

[2] = Comparative example: direct dissolution of latanoprost in water containing NaH2PO4 with stirring; assay type: physicochemical
Description: Latanoprost (5.621 mg) was dissolved in water (100 mL), containing NaH2PO4 (0.463 g). The mixture was stirred for 120 minutes.
The mixture from Example 3 was heated at 40° C. with stirring for 120 minutes. A solution of Latanoprost with concentration 0.00407% (w/v, or 81.4% of target concentration 0.005%) was obtained.

content of Latanoprost in resultant solution ([1]; Example 1: ethanol solution dried on NaH2PO4*H2O/Na2HPO4, powder dissolved in water (120 mL), benzalkonium chloride added, room temperature): 0.005 % (w/v)
appearance and stability of resultant solution ([1]; Example 1: powder dissolved in water (120 mL), benzalkonium chloride added): transparent and stable
concentration of fine suspension of Latanoprost ([1]; Example 2: acetonitrile solution dried on NaH2PO4/Na2HPO4, 50 mL water, stirred 5 minutes): about 0.01 % (w/v)
concentration of obtained clear solution of Latanoprost ([1]; Example 2: after further 50 mL water containing benzalkonium chloride and sodium chloride): 0.005 % (w/v)
Latanoprost concentration of aqueous solution ([2]; Example 3 (comparative): 5.621 mg in water (100 mL) with NaH2PO4, stirred 120 minutes): 0.00015 % (w/v)
percent of target concentration of 0.005% ([2]; Example 3 (comparative): stirred 120 minutes, no heating): 30%
percent of target concentration 0.005% ([2]; Example 4 (comparative): heated at 40° C. with stirring for 120 minutes): 81.4%
concentration of solution of Latanoprost ([2]; Example 4 (comparative): mixture from Example 3 heated at 40° C. with stirring for 120 minutes): 0.00407 % (w/v)
SMILES: CC(C)OC(=O)CCC/C=C\C[C@@H]1[C@@H](CC[C@@H](O)CCc2ccccc2)[C@H](O)C[C@@H]1O [Latanoprost, Isopropyl (Z)-7-{(1R,2R,3R,5S)-3,5-dihydroxy-2-[3(R)-(3-hydroxyl-5-phenyl)pentyl]cyclopentyl}-5-heptenoate]
